Source: paper PMC11648681, “Development of machine learning models for the prediction of the skin sensitization potential of cosmetic compounds” (PeerJ, 2024)
“And” between values parts separate entries of the source, which are not always exact repeats. Equal entries are not always repeated. Where two headings read alike, the source gives them in different places.

How the values were obtained:
[1] = tested on: THP-1 cells; test: CCK-8 cell viability of THP-1 cells after 48 h compound treatment in HaCaT/THP-1 co-culture; type: cell-based, human; settings: 48 h
Procedure: (§1) The co-culture system was set up according to the following described method. […] THP-1 cells were collected, centrifuged, and re-suspended in fresh RPMI-1640 medium supplemented with 10% FBS at 2 × 10^6 cells/mL. Then cells are distributed into HaCaT-seeded 96 wells plate with 80 μL (1.6 × 10^5 cells/well).
(§2) The compounds listed in Table 1 were dissolved in DMSO to create stock solutions with a concentration of 500 mg/mL. Eleven concentrations were subsequently prepared using two-fold serial dilutions. These stock solutions were then further diluted 250-fold in RPMI-1640 + 10% FBS medium. Finally, 80 μL of the prepared solutions were added 1:1 to the treated 96-well plates and incubated for 48 h at 37 °C and 5% CO2.
(§3) After 48 h of treatment, the treated cells were collected 100 μL cells per well. The supernatant medium was added 10 μL of CCK-8 (Life-iLab, Shanghai, China) solution to each well and incubated the plate in the incubator for 2–4 h. THP-1 cell viability was determined using standard calculation methods.
(§4) The cytotoxicity of 15 test compounds listed in Table 1 was assessed using THP-1 cells across a concentration range of 1,000 to 3.9 μg/mL. Cell viability was assessed after 48 h of treatment using the CCK-8 assay.

[2] = as above; type: cell-based, human; settings: human; for IC50 at 48 h: THP-1 cells, 48 h treatment, CCK-8, range 1,000 to 3.9 μg/mL, read-out: IC50 (cytotoxicity)
Procedure: as §1, §2, §3, §4

[3] = 0.976563 μg/mL, THP-1, individual replicate values
[4] = 1.95312 μg/mL, THP-1, individual replicate values
[5] = 3.90625 μg/mL, THP-1, individual replicate values
[6] = 7.8125 μg/mL, THP-1, individual replicate values
[7] = 15.625 μg/mL, THP-1, individual replicate values
[8] = 31.25 μg/mL, THP-1, individual replicate values
[9] = 62.5 μg/mL, THP-1, individual replicate values
[10] = 125 μg/mL, THP-1, individual replicate values
[11] = 250 μg/mL, THP-1, individual replicate values
[12] = 500 μg/mL, THP-1, individual replicate values
[13] = 1000 μg/mL, THP-1, individual replicate values
[14] = THP-1 cells, CCK-8, single (not double) concentration
[15] = THP-1 cells in co-culture with HaCaT cells, 48 h, THP-1, individual replicate values
[16] = THP-1 cells in co-culture with HaCaT cells, 31.25 μg/mL, 48 h, THP-1, individual replicate values, read-out: Cell viability
[17] = 48 h, THP-1, individual replicate values
[18] = THP-1 cells in co-culture with HaCaT cells

Structure (SMILES) | Cell viability [1, 3] | Cell viability [1, 4] | Cell viability [1, 5] | Cell viability [1, 6] | Cell viability [1, 7] | Cell viability [1, 8] | Cell viability [1, 9] | Cell viability [1, 10] | Cell viability [1, 11] | Cell viability [1, 12] | Cell viability [1, 13] | viability at 48 h, 0.976563 μg/mL [2, 15] | viability at 48 h, 3.90625 μg/mL [2, 15] | viability at 48 h, 7.8125 μg/mL [2, 15] | viability at 48 h, 62.5 μg/mL [2, 15] | viability at 48 h, 125 μg/mL [2, 15] | viability at 48 h, 250 μg/mL [2, 15] | viability at 48 h, 500 μg/mL [2, 15] | viability at 48 h, 1000 μg/mL [2, 15] | viability at 48 h, 15.625 μg/mL [2, 15] | also measured
O=c1c(-c2ccccc2)c1-c1ccccc1 [diphenylcyclopropenone, Diphenylcyclopropenone] | 95.9291% | 135.468% | 42.1135% | 16.9362% | 18.4255% and 40.305% | 15.5674% | 19.5248% | 23.4184% | 23.9858% | 31.4681% | 33.1277% | 95.4% | 36.8% | 21.2% | 26.6% | 28.2% | 29.3% | 30.3% | 30.7% |  | final concentration used (highest concentration that maintained at least 80% cell viability) [1, 14]: 0.98 µg/mL; viability at 48 h, 1.95312 μg/mL [2, 15]: 124%; viability at 48 h, 31.25 μg/mL [2, 16]: 25.4%
C=CCc1ccc(O)c(OC)c1 [eugenol, Eugenol] | 95.2766% | 82.8227% | 95.5106% | 87.9007% | 89.6454% |  | 83.0993% | 50.2837% | 13.5816% | 12.3688% | 8.652% and 19.4894% |  |  |  |  |  |  |  |  |  | final concentration used (highest concentration that maintained at least 80% cell viability) ([1]; human): 31.2 µg/mL; Cell viability ([1]; human, 31.25 μg/mL): 101.56%; viability at 48 h, 0.976563 μg/mL [2, 17]: 96.1%; viability at 48 h, 1.95312 μg/mL [2, 17]: 85.9%; viability at 48 h, 3.90625 μg/mL [2, 17]: 94%; viability at 48 h, 7.8125 μg/mL [2, 17]: 89.2%; viability at 48 h, 15.625 μg/mL [2, 17]: 84%; viability at 48 h, 62.5 μg/mL [2, 17]: 96.6%; viability at 48 h, 125 μg/mL [2, 17]: 54.7%; viability at 48 h, 250 μg/mL [2, 17]: 13.4%; viability at 48 h, 500 μg/mL [2, 17]: 19.5%; viability at 48 h, 31.25 μg/mL ([2]; Cell viability): 89.2%
OCC(O)CO [glycerol, Glycerol] |  |  |  |  |  |  |  |  |  |  |  | 87.7% | 79.1% |  | 110% | 90.6% | 93.5% | 93.4% | 98.4% | 93.7% | Cell viability ([1]; human, 31.25 μg/mL): 116.476%; viability at 48 h, 31.25 μg/mL ([2]; Cell viability): 105%; viability at 48 h, 1.95312 μg/mL [2, 15]: 93.5%; IC50 at 48 h [2, 18]: > 1000 µg/mL
O=CCc1ccccc1 [phenylacetaldehyde, Phenylacetaldehyde] |  | 84.3308% | 77.9774% | 74.6917% | 73.3083% | 14.7368% | 15.5263% | 17.3609% | 19.4737% | 22.2782% | 20.8421% | 84.7% | 84.7% | 80.6% | 15.8% | 17% | 19.5% | 21.5% | 18.6% | 74.2% | final concentration used (highest concentration that maintained at least 80% cell viability) [1, 14]: 7.8 µg/mL; viability at 48 h, 1.95312 μg/mL [2, 15]: 85.6%; viability at 48 h, 31.25 μg/mL [2, 16]: 14.8%
Oc1cccc(O)c1 [resorcinol, Resorcinol] | 87.3677% | 103.314% and 82.4843% | 80.4798% | 98.5964% | 93.1569% |  | 79.0942% | 70.9013% | 60.5067% | 57.2511% | 56.1435% | 86.4% | 99.3% | 95.8% | 68% | 66.2% | 59.3% | 56.3% | 58.1% | 86.8% | Cell viability ([1]; human, 31.25 μg/mL): 84.1435%; viability at 48 h, 31.25 μg/mL ([2]; Cell viability): 81.4%
CC(C)CCCC(C)CCCC(C)CCCCC(C)CCCC(C)CCCC(C)C (centres unmarked) [squalane, Squalane] | 122.038% | 117.419% | 88.2476% | 84.8% | 88.8667% | 81.4095% |  | 94.8381% | 87.1048% | 84.4381% | 95.019% |  | 85.4% | 85% | 87.1% | 98% | 83.7% | 82% | 91.2% | 78.7% | viability at 48 h, 31.25 μg/mL [2, 16]: 89.3%; IC50 at 48 h [2, 18]: > 1000 µg/mL
